Tests used:
[1] = system: NF-kB transcriptional activity in HEK-293-NF-kB-Luc cell line overexpressing MALT1; assay: NF-kB reporter assay (luciferase, MALT1 stably overexpressed); format: cell-based; details: Homo sapiens, 24 h, HEK-293-NF-kB-Luc cells stably overexpressing MALT1, 24 h treatment, Bright Glo luminescence; read-out: NF-kB inhibition IC50
How it was run: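 Inhibition of NF-κB activity was expressed relative to 0.1% DMSO wells, from luminescence after 10 min Bright Glo at ambient temperature. Compounds had been applied for 24 h to adhered MALT1-overexpressing HEK-293 NF-κB luciferase reporter cells.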

full length MALT1 enzyme = biological target: T1, full length MALT1 enzyme (Homo sapiens, UniProt Q9UDY8); assay: MALT1 biochemical assay (fluorescence based, Ac-Leu-Arg-Ser-Arg-AMC cleavage); details: full length MALT1 protein, 2 h pre-incubation at RT, tetrapeptide substrate Ac-Leu-Arg-Ser-Arg-AMC, read-out: Malt 1 inhibition IC50
T1 construct: a fluorescence based assay with full length MALT1 enzyme
T1 sequence (Q9UDY8 1-824): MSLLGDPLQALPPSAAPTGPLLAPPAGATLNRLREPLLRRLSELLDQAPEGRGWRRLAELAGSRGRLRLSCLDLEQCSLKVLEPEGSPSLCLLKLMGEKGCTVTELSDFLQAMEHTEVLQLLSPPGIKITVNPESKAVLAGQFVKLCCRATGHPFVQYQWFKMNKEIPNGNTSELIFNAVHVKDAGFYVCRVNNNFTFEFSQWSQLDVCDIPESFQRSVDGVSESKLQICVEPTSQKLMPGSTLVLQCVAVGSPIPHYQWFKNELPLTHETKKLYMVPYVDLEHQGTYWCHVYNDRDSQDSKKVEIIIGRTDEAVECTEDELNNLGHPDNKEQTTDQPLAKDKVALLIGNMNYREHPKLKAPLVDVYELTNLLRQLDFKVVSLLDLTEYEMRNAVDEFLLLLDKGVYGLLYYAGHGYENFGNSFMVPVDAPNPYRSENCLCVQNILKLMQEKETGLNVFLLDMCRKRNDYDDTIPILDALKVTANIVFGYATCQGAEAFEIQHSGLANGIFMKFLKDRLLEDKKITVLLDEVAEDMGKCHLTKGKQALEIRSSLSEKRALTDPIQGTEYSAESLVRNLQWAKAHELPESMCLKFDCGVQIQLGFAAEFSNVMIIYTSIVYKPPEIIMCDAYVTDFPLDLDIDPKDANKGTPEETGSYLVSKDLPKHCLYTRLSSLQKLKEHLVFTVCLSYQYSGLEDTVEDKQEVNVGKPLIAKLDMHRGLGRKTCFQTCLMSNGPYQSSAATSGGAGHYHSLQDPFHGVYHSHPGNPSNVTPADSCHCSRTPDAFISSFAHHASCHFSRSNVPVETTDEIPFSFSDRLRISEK
Procedure: The biochemical potency of the MALT1 inhibitors was tested by using a fluorescence based assay with full length MALT1 enzyme. The assay principle makes use of the preferential cleavage by MALT1 after the Arginine residue. Thus, the substrate used is a tetrapeptide (Ac-Leu-Arg-Ser-Arg-AMC; Catalogue # SMAMC013, SM Biochemicals) which is cleaved by active MALT1 releasing the AMC which is fluorescent. Upon addition of the MALT1 protease inhibitors, the proteolytic activity (and accordingly AMC fluorescence) is reduced in a dose dependent manner. The kinetic characterization of the enzymatic reaction was measured by determining the Michaelis constant, Km, of the reaction (approximately 130=A/I). The assay buffer consisted of 50 mM MES, 150 mM NaCl, 0.1% w/v CHAPS, 1 M Ammonium citrate and 10 mM DTT (pH=7). The assay was established for the 384-well plate format using black microtiter square well plates (Optiplate 384-F, Perkin Elmer). The test compounds were dissolved in 100% DMSO at a stock concentration of 10 mM. Serial dilutions were made first in 100% DMSO. The final concentration of DMSO was 0.5% by wt.
For determining the extent of inhibition of MALT1 protease activity by MALT1 inhibitors, 10⇒| of the test compound solutions were pre-incubated with 10⇒| of MALT1 full length protein (100-300 ng protein/well) for 2 h at RT. This was followed by 10⇒| of substrate addition at a final concentration of 100⇒M for an additional 4-12 h. The increase in assay signal was linear over this period of time and proportional with increase in the enzyme content. The final concentrations of the test compounds typically ranged from 10000 nM to 0.03 nM in an alternate 3.16 and 3 serial dilutions. The positive control for the reaction contained enzyme and DMSO (without any test compound) and was considered to have 100% enzyme activity (0% inhibition) and the negative control containing only buffer and DMSO (without any enzyme) was considered to have no enzymatic activity (100% inhibition). The fluorescence was recorded in a Spectra Max plate reader, Molecular Devices, with a fluorescence excitation at 360 nm and emission recording at 460 nm. The fluorescence units were transformed to percentage inhibitions by using the positive and negative controls as references as per the following formula.
[formula] Positive control=Reaction containing enzyme+substrate+DMSO
Negative control=Reaction containing substrate+DMSO but no enzyme
The IC50 values of individual compounds were calculated with Non Linear Regression Analysis using Graph Pad Prism (Graph Pad software, Inc, USA).

Compound	IC50 (full length MALT1 enzyme) [nM]	IC50 [1] [nM]
CCC(OC)c1c(NC(=O)Nc2ccc(-n3nccn3)c(Cl)c2)cnc2sc(C)nc12 (single isomer, unassigned) [Compound 126b, 1-(3-Chloro-4-(2H-1,2,3-triazol-2-yl)phenyl)-3-(7-(1-methoxypropyl)-2-methylthiazolo[5,4-b]pyridin-6-yl)urea]	1 to 50	1 to 100
COC(=O)c1cc(Cl)cc(NC(=O)Nc2cnc3sc(C)nc3c2C(C)OC)c1 (single isomer, unassigned) [Compound 152b, Methyl 3-chloro-5-(3-(7-(1-methoxyethyl)-2-methylthiazolo[5,4-b]pyridin-6-yl)ureido)benzoate]	1 to 50	1 to 100
CCOC(C)c1c(NC(=O)Nc2cc(Cl)cnc2OC)cnc2sc(C)nc12 (single isomer, unassigned) [Compound 167b, 1-(5-Chloro-2-methoxypyridin-3-yl)-3-(7-(1-ethoxyethyl)-2-methylthiazolo[5,4-b]pyridin-6-yl)urea]	51 to 100	1 to 100
COC(C)c1c(NC(=O)Nc2cnc(-n3cccn3)c(C(F)(F)F)c2)cnc2sc(C)nc12 (single isomer, unassigned) [Compound 213b, (S) or (R)-1-(6-(1H-Pyrazol-1-yl)-5-(trifluoromethyl)pyridin-3-yl)-3-(7-(1-methoxyethyl)-2-methylthiazolo[5,4-b]pyridin-6-yl)urea]	1 to 50	1 to 100
CCc1nc2c(C(C)OC)c(NC(=O)Nc3ccc(-n4nccn4)c(Cl)c3)cnc2s1 (single isomer, unassigned) [Compound 233b, 1-(3-Chloro-4-(2H-1,2,3-triazol-2-yl)phenyl)-3-(2-ethyl-7-(1-methoxyethyl)thiazolo[5,4-b]pyridin-6-yl)urea]	1 to 50	101 to 500
COC(C)c1c(NC(=O)Nc2cnc(-n3cnnn3)c(C(F)(F)F)c2)cnc2sc(C)nc12 (single isomer, unassigned) [Compound 239, (S or R)-1-(6-(1H-Tetrazol-1-yl)-5-(trifluoromethyl)pyridin-3-yl)-3-(7-(1-methoxyethyl)-2-methylthiazolo[5,4-b]pyridin-6-yl)urea]	1 to 50	1 to 100
COC(CC1CC1)c1c(NC(=O)Nc2cnc(-n3nccn3)c(C(F)(F)F)c2)cnc2sc(C)nc12 (single isomer, unassigned) [Compound 240b, 1-(6-(2H-1,2,3-Triazol-2-yl)-5-(trifluoromethyl)pyridin-3-yl)-3-(7-(2-cyclopropyl-1-methoxyethyl)-2-methylthiazolo[5,4-b]pyridin-6-yl)urea]	1 to 50	1 to 100
CCOc1ncc(NC(=O)Nc2cnc3sc(C)nc3c2C2CC2)cc1Cl [Compound 4, 1-(5-Chloro-6-ethoxypyridin-3-yl)-3-(7-cyclopropyl-2-methylthiazolo[5,4-b]pyridin-6-yl)urea]	1 to 50	501 to 1500
Cc1nc2c(C3CC3)c(NC(=O)Nc3cncc(C(F)(F)F)c3)cnc2s1 [Compound 7, 1-(7-Cyclopropyl-2-methylthiazolo[5,4-b]pyridin-6-yl)-3-(5-(trifluoromethyl)pyridin-3-yl)urea]	101 to 500	101 to 500
COc1cc(F)ccc1-c1c(NC(=O)Nc2cnc(OC)c(Cl)c2)cnc2sc(C)nc12 [Compound 15, 1-(5-Chloro-6-methoxypyridin-3-yl)-3-(7-(4-fluoro-2-methoxyphenyl)-2-methylthiazolo[5,4-b]pyridin-6-yl)urea]	1 to 50	501 to 1500
CCc1c(NC(=O)Nc2ccc(OC)c(Cl)c2)cnc2sc(C)nc12 [Compound 25, 1-(3-Chloro-4-methoxyphenyl)-3-(7-ethyl-2-methylthiazolo[5,4-b]pyridin-6-yl)urea]	1 to 50	501 to 1500
COC1CCN(c2c(NC(=O)Nc3cnc(-n4nccn4)c(Cl)c3)cnc3sc(C)nc23)CC1 [Compound 29, 1-(5-Chloro-6-(2H-1,2,3-triazol-2-yl)pyridin-3-yl)-3-(7-(4-methoxypiperidin-1-yl)-2-methylthiazolo[5,4-b]pyridin-6-yl)urea]	51 to 100	101 to 500
CCc1nc2c(C3CC3)c(NC(=O)Nc3cnc(-n4nccn4)c(Cl)c3)cnc2s1 [Compound 31, 1-(5-Chloro-6-(2H-1,2,3-triazol-2-yl)pyridin-3-yl)-3-(7-cyclopropyl-2-ethylthiazolo[5,4-b]pyridin-6-yl)urea]	1 to 50	101 to 500

More lines, main results first:

IC50 (full length MALT1 enzyme) [nM]	Compound	IC50 [1] [nM]
1 to 50	COC(C)c1c(NC(=O)Nc2cnc(-n3nccn3)c(C(F)(F)F)c2)cnc2sc(C)nc12 (single isomer, unassigned) [Compound 142a, 1-(6-(2H-1,2,3-Triazol-2-yl)-5-(trifluoromethyl)pyridin-3-yl)-3-(7-(1-methoxyethyl)-2-methylthiazolo[5,4-b]pyridin-6-yl)urea]	1 to 100
1 to 50	COc1nc(-n2nccn2)c(C(F)(F)F)cc1NC(=O)Nc1cnc2sc(C)nc2c1C(OC)C1CC1 (single isomer, unassigned) [Compound 155a, 1-(7-(Cyclopropyl(methoxy)methyl)-2-methylthiazolo[5,4-b]pyridin-6-yl)-3-(2-methoxy-6-(2H-1,2,3-triazol-2-yl)-5-(trifluoromethyl)pyridin-3-yl)urea]	1 to 100
1 to 50	COC(C)c1c(NC(=O)Nc2ccc(-n3ccnn3)c(Cl)c2)cnc2sc(C)nc12 (single isomer, unassigned) [Compound 198b, (S) or (R)-1-(3-Chloro-4-(1H-1,2,3-triazol-1-yl)phenyl)-3-(7-(1-methoxyethyl)-2-methylthiazolo[5,4-b]pyridin-6-yl)urea]	1 to 100
101 to 500	COC(C)c1c(NC(=O)Nc2ccc(-c3cnco3)c(Cl)c2)cnc2sc(C)nc12 (single isomer, unassigned) [Compound 204, (S) or (R)-1-(3-Chloro-4-(oxazol-5-yl)phenyl)-3-(7-(1-methoxyethyl)-2-methylthiazolo[5,4-b]pyridin-6-yl)urea]	101 to 500
101 to 500	Cc1nc2c(C3CC3)c(NC(=O)Nc3cc(C(F)(F)F)cn(C)c3=O)cnc2s1 [Compound 5, 1-(7-Cyclopropyl-2-methylthiazolo[5,4-b]pyridin-6-yl)-3-(1-methyl-2-oxo-5-(trifluoromethyl)-1,2-dihydropyridin-3-yl)urea]	101 to 500
51 to 100	Cc1nc2c(C3CC3)c(NC(=O)Nc3cnc(N4CCCS4(=O)=O)c(C(F)(F)F)c3)cnc2s1 [Compound 23, 1-(7-Cyclopropyl-2-methylthiazolo[5,4-b]pyridin-6-yl)-3-(6-(1,1-dioxidoisothiazolidin-2-yl)-5-(trifluoromethyl)pyridin-3-yl)urea]	101 to 500

Reference: patent publication US20190275012A9, “SUBSTITUTED THIAZOLO-PYRIDINE COMPOUNDS AS MALT1 INHIBITORS” (Lupin Limited, priority 2016, published 2019)
